# Several values for one entry are separate records, joined by “and”; a condition that tells them apart may be missing. Equal entries are not always repeated.
# What was measured:
# Format in all cases: cell-based, human
# SUP B15 = assay: In vitro cytotoxicity of mAb216 in combination with chemotherapeutic agents, SUP B15; conditions: SUP B15, 48 h
# Method: (§1) Three cell lines which have been derived from ALL blasts of different genotype and phenotype, Nalm 6, REH, and SUPB15, were incubated with mAb 216 alone or in combination with vincristine (VCR), for 48 hours at 37° C.
# (§2) In vitro cytotoxicity of mAb216 in combination with single chemotherapeutic agents was tested. Three cell lines which have been derived from ALL blasts of different genotype and phenotype, Nalm 6, REH, and SUPB15, were incubated with mAb 216 alone or in combination with vincristine (VCR), daunorubicin (DNR), or L-asparaginase (ASPR).
# Nalm 6 = assay: In vitro cytotoxicity of mAb216 in combination with chemotherapeutic agents, Nalm 6; conditions: for Live cells: Nalm 6, 48 h
# Method: as §1, §2
# Nalm-6 cells = assay: Cell viability assay using PI staining and forward scatter, Nalm-6; conditions: for viability (percent viable cells): jasplakinolide 3 μgs/ml or cytochalasin 5 μgs/ml 2 hr at 37° C; for cell viability: caspase inhibitors 10 μM 2 hr at 37° C before treatment with mAb 216
# Method: The integrity of the plasma membrane was assessed by the ability of cells to exclude propidium iodide (PI, Sigma, St. Louis, Mo.). The level of PI incorporation was quantitated by flow cytometry on FACScan (Becton-Dickinson, San Jose Calif.) interfaced with VersatermPro and FlowJo software at Stanford's FACS facility. PI-negative cells with normal size as measured by forward scatter signals were considered live cells.
# Briefly, cells were treated as specified in each experiment and resuspended in PBS with 3% FCS and 10 μgs/ml of PI. In experiments where toxicity was evaluated in Ca-free medium, cells were resuspended in appropriate media with or without calcium to which 10 μgs/ml PI was added. Since previous studies have shown that mAb 216-mediated toxicity is remarkably […] at lower temperatures (Bhat, N. M., et al. (1996) Clin. Exp. Immunol 105, 183), precautions were taken to keep all media and cells at 37° C. and the centrifuge at room temperature.
# Cytochalasin was obtained from Sigma and jasplakinolide was obtained from Molecular Probes (Eugene, Oreg.). Caspase inhibitors, Ac-IETD-CHO and Ac-DEVD-CHO were obtained from PharMingen (San Diego, Calif.). Nalm-6 cells (1×10^6 cells/ml) were treated with jasplakinolide (3 μgs/ml), cytochalasin (5 μgs/ml), or caspase inhibitors (10 μM) for 2 hr at 37° C. before treatment with mAb 216. Control samples with equivalent amounts of DMSO were set in parallel. Cells were then exposed to 25 μg of mAb 216 or control Ab and analyzed by flow cytometry.
# Since exocytosis of lysosomes is known to be a calcium dependent phenomenon (Miyake, K., and P. L. McNeil (1995) J. Cell Biol. 131, 1737; Bi, G. Q., et al. (1995) J. Cell Biol. 131, 1747), membrane wounding by mAb 216 and repair of the wound was tested in calcium free and normal calcium conditions. The cell viability of Nalm-6 cells when treated with two VH4-34 encoded mAbs, mAb 216 at 50, 25 and 12.5 ng/ml concentrations, and Y2K at 50 ng/ml, was tested in the presence of media with and without calcium.
# Brefeldin-A was obtained from Sigma. Nalm-6 cells (1×10^6 cells/ml) were treated with BFA (25 μg/ml) for 2 hr at 37° C. before treatment with mAb 216. Control samples with equivalent amounts of DMSO were set in parallel. Cells were then exposed to 25 μg of mAb 216 or control Ab and analyzed by flow cytometry.
# The in vitro cytotoxicity of mAb 216 to Nalm-6 cells was evaluated using PI staining and viability assessment (percent live cells) as a function of the amount of mAb 216 present. The amount of mAb 216 needed to achieve 50% and 80% viability in Nalm-6 cells with and without a crosslinking agent (a secondary mAb, e.g., anti-human lambda) is shown in Table 1, expressed in nanograms antibody required to achieve the indicated level of cytotoxicity, as determined by PI entry into cells.
# REH = assay: In vitro cytotoxicity of mAb216 in combination with chemotherapeutic agents, REH; conditions: 48 h
# Method: as §1, §2
molecule,measurement,setting,value
"COc1cccc2c1C(=O)c1c(O)c3c(c(O)c1C2=O)C[C@@](O)(C(C)=O)C[C@@H]3O[C@H]1C[C@H](N)[C@H](O)[C@H](C)O1 [DNR, Daunorubicin]",Live cells × 10^5,SUP B15; DNR 4 ng/ml,0.44 × 10^5
same,Live cells,Nalm 6; DNR 5 ng/ml,4.3 × 10^5
cytochalasin,viability (percent viable cells),Nalm-6 cells; then control antibodies,did not show a decrease in viability
Ac-IETD-aldehyde,cell viability,Nalm-6 cells,did not alter cell viability
C/C1=C\[C@H](C)C[C@H](C)OC(=O)C[C@H](c2ccc(O)cc2)NC(=O)[C@@H](Cc2c(Br)[nH]c3ccccc23)N(C)C(=O)[C@H](C)NC(=O)[C@@H](C)C1 [jasplakinolide],viability (percent viable cells),Nalm-6 cells; then control antibodies,did not show a decrease in viability
"C[C@H]1CCC/C=C/[C@@H]2C[C@H](O)C[C@H]2[C@H](O)/C=C/C(=O)O1 [BFA, Brefeldin A]",viability of cells,"Nalm-6 cells; BFA 25 μg/ml 2 hr at 37° C, then control antibodies",no effect on the viability
"CC[C@]1(O)C[C@H]2CN(CCc3c([nH]c4ccccc34)[C@@](C(=O)OC)(c3cc4c(cc3OC)N(C=O)[C@H]3[C@@](O)(C(=O)OC)[C@H](OC(C)=O)[C@]5(CC)C=CCN6CC[C@]43[C@@H]65)C2)C1 [VCR, Vincristine]",Live cells × 10^5,SUP B15; VCR 2 ng/ml,2.8 × 10^5
same,Live cells,Nalm 6; VCR 0.2 ng/ml,13 × 10^5
same,Live cells,Nalm 6; VCR 2 ng/ml,5 × 10^5
same,cell death due to treatment with vincristine alone,"Nalm 6; vincristine 0.2 ng/ml, 48 hours at 37° C",no cell death occurred
same,live cell count,REH; VCR 2 ng/ml,4.2 × 10^5 and 7.7 × 10^5
Ac-DEVD-CHO,cell viability,Nalm-6 cells,did not alter cell viability
"Asparaginase (protein, UniProt P00805 23-348, looked up, L-asparaginase, chemotherapeutic enzyme) L-asparaginase 2: LPNITILATGGTIAGGGDSATKSNYTVGKVGVENLVNAVPQLKDIANVKGEQVVNIGSQDMNDNVWLTLAKKINTDCDKTDGFVITHGTDTMEETAYFLDLTVKCDKPVVMVGAMRPSTSMSADGPFNLYNAVVTAADKASANRGVLVVMNDTVLDGRDVTKTNTTDVATFKSVNYGPLGYIHNGKIDYQRTPARKHTSDTPFDVSKLNELPKVGIVYNYANASDLPAKALVDAGYDGIVSAGVGNGNLYKSVFDTLATAAKTGTAVVRSSRVPTGATTQDAEVDDAKYGFVASGTLNPQKARVLLQLALTQTKDPQQIQQIFNQY",Live cells × 10^5,SUP B15; ASPR 0.8 U/ml,3 × 10^5
same,Live cells,Nalm 6; ASPR 0.8 U/ml,9.2 × 10^5
same,live cell count,REH; ASPR 0.8 U/ml,6.2 × 10^5

# From patent publication US8377435B2, “Antibody induced cell membrane wounding” (The Board of Trustees of the Leland Stanford Junior …, priority 2004, dated 2013)
